US9931347B2, “Pharmaceutical compound” (IOmet Pharma Ltd., priority 2013, dated 2018)

Legend:
[1] = target: T1, TDO (A172 human glioblastoma cells) (Homo sapiens, UniProt P48775); assay: A172 Kynurenine cell based assay; details: 500 μM L-tryptophan, 48 hours, kynurenine by Erhlich's reagent
T1 construct: This assay utilised cancer cells which expressed either TDO or IDO; endogenous in cells; host or cells: A172 human glioblastoma cells
Procedure: (§1) Exemplary compounds of the invention were prepared, and tested to determine their effect as TDO and/or IDO inhibitors. Two different assays were employed: 1. a cell-based assay for detecting the effect of test compounds on kynurenine production in two different cancer cell types. This assay utilised cancer cells which expressed either TDO or IDO and as such was used as a means of testing compound activity at these two enzymes in a cell-based context. 2. a TDO and IDO biochemical coupled assay which utilised recombinantly produced and purified TDO and IDO enzymes in combination with the enzyme formamidase. This coupled enzyme system allowed conversion of N-formylkynurenine produced by TDO or IDO activity to kynurenine which was then quantified by fluorescence following addition of Erhlich's Reagent The protocols for these are set out below.
(§2) A172 (human glioblastoma) and SKOV3 (human ovarian adenocarcinoma) cells were seeded in a 96 well plate at 30,000 or 40,000 cells per well respectively in phenol red-free RPMI supplemented with 10% FCS, 2 mM L-glutamine and 500 μM L-tryptophan. IDO expression was induced in the SKOV3 cells by the addition of 500 ng/ml IFN-γ. Cells were incubated at 37° C. with or without the addition of test compound. After 48 hours, the cells were removed by centrifugation and Erhlich's reagent was added to the supernatant. The Erhlich's reagent was incubated for 5 minutes before the absorbance was read at 490 nm.

[2] = target: T2, IDO (SKOV3 human ovarian adenocarcinoma cells, IFN-γ induced) (Homo sapiens, UniProt P14902); assay: SKOV3 Kynurenine cell based assay; details: IDO induced by 500 ng/ml IFN-γ, 500 μM L-tryptophan, 48 hours
T2 construct: IDO expression was induced in the SKOV3 cells by the addition of 500 ng/ml IFN-γ; endogenous in cells; host or cells: SKOV3 human ovarian adenocarcinoma cells, induced with IFN-γ
T2 sequence (P14902 whole entry): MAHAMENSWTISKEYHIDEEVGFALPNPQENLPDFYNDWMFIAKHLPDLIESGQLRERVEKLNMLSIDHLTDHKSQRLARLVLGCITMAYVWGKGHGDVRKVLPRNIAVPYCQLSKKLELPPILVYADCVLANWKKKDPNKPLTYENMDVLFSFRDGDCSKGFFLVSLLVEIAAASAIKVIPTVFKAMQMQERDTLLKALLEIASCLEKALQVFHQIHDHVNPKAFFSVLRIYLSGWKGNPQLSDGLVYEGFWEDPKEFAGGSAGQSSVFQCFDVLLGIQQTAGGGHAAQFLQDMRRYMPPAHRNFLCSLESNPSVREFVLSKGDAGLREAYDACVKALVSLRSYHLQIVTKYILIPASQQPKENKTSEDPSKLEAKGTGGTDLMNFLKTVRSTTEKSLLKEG
Procedure: as §1
as §2, with “supernatant.” for “supernatant. The Erhlich's reagent was incubated for 5 minutes before the absorbance was read at 490 nm.”

Recombinant human IDO = Recombinant human IDO (Homo sapiens, UniProt P14902); assay: hIDO biochemical coupled assay; details: 45 μM L-tryptophan, coupled with kynurenine formamidase
Sequence of Recombinant human IDO (P14902 whole entry): as above
Procedure: as §1
Recombinant human IDO or TDO was incubated in 50 mM KPO4 (pH 7.0), 0.5 mM EGTA, 0.5 mM EDTA, 0.05% Triton™ X100, 20 mM ascorbate, 10 μM methylene blue, 500 U/ml catalase, 50 μg/ml KynB (kynurenine formamidase).

T1 sequence (P48775 whole entry): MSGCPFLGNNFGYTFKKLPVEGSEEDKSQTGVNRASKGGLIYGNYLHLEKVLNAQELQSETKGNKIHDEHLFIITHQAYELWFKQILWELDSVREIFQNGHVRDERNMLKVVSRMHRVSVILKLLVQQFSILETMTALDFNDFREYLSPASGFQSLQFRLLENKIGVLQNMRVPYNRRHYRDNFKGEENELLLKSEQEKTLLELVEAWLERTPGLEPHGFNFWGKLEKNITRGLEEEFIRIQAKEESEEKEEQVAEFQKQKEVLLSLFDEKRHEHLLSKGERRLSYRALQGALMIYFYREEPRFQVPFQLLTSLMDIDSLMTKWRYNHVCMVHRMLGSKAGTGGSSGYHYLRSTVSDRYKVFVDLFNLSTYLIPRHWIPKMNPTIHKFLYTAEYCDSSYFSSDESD

SMILES	A172 Kynurenine cell based assay pIC50 [1]	SKOV3 Kynurenine cell based assay pIC50 [2]	hIDO biocehmical assay pIC50 (Recombinant human IDO)
COc1ccc(Cl)cc1S(=O)(=O)N1CCC(c2c[nH]c3c(C)cccc23)CC1 [Compound 45]	+ (+ = pIC50 4.00-4.99)	+ (+ = pIC50 4.00-4.99)	+− (+− = pIC50 <4.00)
Cc1nc(N2CCC(c3c[nH]c4cc(F)ccc34)CC2)no1 [Compound 184]	++ (++ = pIC50 5.00-5.99)	+ (+ = pIC50 4.00-4.99)	+− (+− = pIC50 <4.00)
Cc1[nH]c2ccccc2c1C1CCN(S(C)(=O)=O)CC1 [Compound 161]	+− (+− = pIC50 <4.00)	+ (+ = pIC50 4.00-4.99)	+− (+− = pIC50 <4.00)
Cc1cccc2c(C3CCN(S(=O)(=O)c4cccc(C(F)(F)F)c4)CC3)c[nH]c12 [Compound 46]	+ (+ = pIC50 4.00-4.99)	+− (+− = pIC50 <4.00)	+− (+− = pIC50 <4.00)
Cn1cccc1C(=O)N1CCC(c2c[nH]c3cc(F)ccc23)CC1 [Compound 278]	+ (+ = pIC50 4.00-4.99)	++ (++ = pIC50 5.00-5.99)	+ (+ = pIC50 4.00-4.99)
Cc1cccc2c(C3CCN(S(=O)(=O)c4ccc(C(C)(C)C)cc4)CC3)c[nH]c12 [Compound 40]	+ (+ = pIC50 4.00-4.99)	+− (+− = pIC50 <4.00)	+− (+− = pIC50 <4.00)
CC(=O)Nc1ccc(S(=O)(=O)N2CCC(c3c[nH]c4ccccc34)CC2)cc1Cl [Compound 52]	+− (+− = pIC50 <4.00)	+ (+ = pIC50 4.00-4.99)	+− (+− = pIC50 <4.00)
COc1ccc2[nH]cc(C3CCN(S(=O)(=O)c4cccc(OC(F)(F)F)c4)CC3)c2c1 [Compound 53]	+ (+ = pIC50 4.00-4.99)	+ (+ = pIC50 4.00-4.99)	+− (+− = pIC50 <4.00)
COc1cccc2[nH]cc(C3=CCN(C(C)=O)CC3)c12 [Compound 169]	+ (+ = pIC50 4.00-4.99)	+ (+ = pIC50 4.00-4.99)	+− (+− = pIC50 <4.00)
CC(=O)N1CCCC(c2c[nH]c3cc(F)ccc23)CC1 (stereo not drawn) [Compound 181]	++ (++ = pIC50 5.00-5.99)	+− (+− = pIC50 <4.00)	+− (+− = pIC50 <4.00)
CC(=O)N1CC=C(c2c[nH]c3cc(OCc4ccccc4)ccc23)CC1 [Compound 156]	+ (+ = pIC50 4.00-4.99)	+ (+ = pIC50 4.00-4.99)	+− (+− = pIC50 <4.00)
Cc1cccc2c(C3CCN(S(=O)(=O)c4ccccc4S(C)(=O)=O)CC3)c[nH]c12 [Compound 49]	++ (++ = pIC50 5.00-5.99)	+ (+ = pIC50 4.00-4.99)	+− (+− = pIC50 <4.00)
CCCc1ccc(S(=O)(=O)N2CCC(c3c[nH]c4c(C)cccc34)CC2)cc1 [Compound 48]	+ (+ = pIC50 4.00-4.99)	+ (+ = pIC50 4.00-4.99)	+− (+− = pIC50 <4.00)
CC(=O)N1CCN(c2c[nH]c3ccccc23)CC1 [Compound 107]	+ (+ = pIC50 4.00-4.99)	+− (+− = pIC50 <4.00)	+− (+− = pIC50 <4.00)
CCc1cc(Br)ccc1S(=O)(=O)N1CCC(c2c[nH]c3ccc(C)cc23)CC1 [Compound 50]	+ (+ = pIC50 4.00-4.99)	+ (+ = pIC50 4.00-4.99)	+− (+− = pIC50 <4.00)
Cc1cccc2c(C3CCN(S(=O)(=O)c4cc(F)c(F)cc4Cl)CC3)c[nH]c12 [Compound 38]	+ (+ = pIC50 4.00-4.99)	+− (+− = pIC50 <4.00)	+− (+− = pIC50 <4.00)

SMILES	A172 Kynurenine cell based assay pIC50 [1]	SKOV3 Kynurenine cell based assay pIC50 [2]	hIDO biocehmical assay pIC50 (Recombinant human IDO)
CC(=O)N1CC=C(c2c[nH]c3ccncc23)CC1 [Compound 172]	+ (+ = pIC50 4.00-4.99)	+ (+ = pIC50 4.00-4.99)	+− (+− = pIC50 <4.00)
CC(=O)N1CC=C(c2c[nH]c3cccnc23)CC1 [Compound 157]	+ (+ = pIC50 4.00-4.99)	+ (+ = pIC50 4.00-4.99)	+− (+− = pIC50 <4.00)
CC(=O)N1CC=C(c2c[nH]c3ccc(OCc4ccccc4)cc23)CC1 [Compound 155]	+ (+ = pIC50 4.00-4.99)	+ (+ = pIC50 4.00-4.99)	+− (+− = pIC50 <4.00)
CS(=O)(=O)N1CC=C(c2c[nH]c3cnccc23)CC1 [Compound 171]	++ (++ = pIC50 5.00-5.99)	+− (+− = pIC50 <4.00)	+− (+− = pIC50 <4.00)
Cc1cccc2c(C3CCN(C(=O)c4cnn(-c5ccccc5)c4C(F)(F)F)CC3)c[nH]c12 [Compound 41]	+ (+ = pIC50 4.00-4.99)	+ (+ = pIC50 4.00-4.99)	+− (+− = pIC50 <4.00)
Cc1cc(S(=O)(=O)N2CCC(c3c[nH]c4ccc(F)cc34)CC2)c(Cl)cc1Cl [Compound 39]	+ (+ = pIC50 4.00-4.99)	+ (+ = pIC50 4.00-4.99)	+− (+− = pIC50 <4.00)
CS(=O)(=O)N1CCC(c2c[nH]c3ccc(F)cc23)CC1 [Compound 159]	++ (++ = pIC50 5.00-5.99)	+− (+− = pIC50 <4.00)	+− (+− = pIC50 <4.00)
CC1CN(c2c[nH]c3ccccc23)CCN1S(C)(=O)=O (stereo not drawn) [Compound 186]	++ (++ = pIC50 5.00-5.99)	+− (+− = pIC50 <4.00)	+− (+− = pIC50 <4.00)
CC(=O)N1CCC(c2c[nH]c3ccc(F)cc23)CC1 [Compound 158]	+ (+ = pIC50 4.00-4.99)	+− (+− = pIC50 <4.00)	+− (+− = pIC50 <4.00)
COc1ccc2[nH]cc(C3CCN(S(=O)(=O)c4ccc(C(F)(F)F)cc4Cl)CC3)c2c1 [Compound 43]	+ (+ = pIC50 4.00-4.99)	+ (+ = pIC50 4.00-4.99)	+− (+− = pIC50 <4.00)
O=S(=O)(c1ccccc1OC(F)(F)F)N1CCC(c2c[nH]c3ccc(F)cc23)CC1 [Compound 51]	+ (+ = pIC50 4.00-4.99)	+ (+ = pIC50 4.00-4.99)	+− (+− = pIC50 <4.00)
CS(=O)(=O)N1CCN(c2c[nH]c3ccccc23)CC1 [Compound 108]	+ (+ = pIC50 4.00-4.99)	+− (+− = pIC50 <4.00)	+− (+− = pIC50 <4.00)
Fc1ccc2c(C3CCN(c4ncccn4)CC3)c[nH]c2c1 [Compound 180]	+ (+ = pIC50 4.00-4.99)	++ (++ = pIC50 5.00-5.99)	+− (+− = pIC50 <4.00)
CC(=O)N1CCC(c2c[nH]c3cc(F)ccc23)CC1(C)C (stereo not drawn) [Compound 316]	++ (++ = pIC50 5.00-5.99)	+ (+ = pIC50 4.00-4.99)	–
O=C1CCC2CN(c3c[nH]c4ccccc34)CCN12 (stereo not drawn) [Compound 190]	++ (++ = pIC50 5.00-5.99)	+− (+− = pIC50 <4.00)	–
CC1(C)CN(c2c[nH]c3ccccc23)CCN1S(C)(=O)=O [Compound 191]	++ (++ = pIC50 5.00-5.99)	+− (+− = pIC50 <4.00)	–
